Source: PMC7172207 (Bioorganic & Medicinal Chemistry Letters, 2019)

Tests used:
[1] = test system: DENV2; assay: Immunofluorescence assay of DENV2 infectivity; assay type: cell-based, Dengue virus type 2 (strain 16681); conditions: for rate of NS4B-positive cells: Vero E6, DENV2-infected, 96 h
[2] = test system: DENV2; assay: Anti-DENV2 activity in human lung epithelial A549 cells; assay type: cell-based, Dengue virus type 2; conditions: DENV2 MOI 0.01, 120 h

## CC1(C)[C@@H](O[C@H]2O[C@H](C(=O)N[C@@H](Cc3ccccc3)C(=O)O)[C@@H](O)[C@H](O)[C@H]2O[C@@H]2O[C@H](C(=O)N[C@@H](Cc3ccccc3)C(=O)O)[C@@H](O)[C@H](O)[C@H]2O)CC[C@]2(C)[C@H]3C(=O)C=C4[C@@H]5C[C@@](C)(C(=O)N[C@@H](Cc6ccccc6)C(=O)O)CC[C@]5(C)CC[C@@]4(C)[C@]3(C)CC[C@@H]12 [Compound 14]
[1]; Vero E6 cells, CPE test and NS4B-positive cells
  anti-DENV2 activity (in words): dropped the anti-DENV activity

## CC[C@H](C)[C@H](NC(=O)[C@H]1O[C@@H](O[C@H]2[C@@H](O[C@H]3CC[C@]4(C)[C@H]5C(=O)C=C6[C@@H]7C[C@@](C)(C(=O)N[C@H](C(=O)O)[C@@H](C)CC)CC[C@]7(C)CC[C@@]6(C)[C@]5(C)CC[C@H]4C3(C)C)O[C@H](C(=O)N[C@H](C(=O)O)[C@@H](C)CC)[C@@H](O)[C@@H]2O)[C@H](O)[C@@H](O)[C@@H]1O)C(=O)O [Compound 13]
[2]
  anti-DENV2 activity in A549 cells (in words): potent anti-DENV2 activity
[1]; 0.1 μM compound
  rate of NS4B-positive cells: 37.2%
[1]; 1 μM compound
  rate of NS4B-positive cells: 29.4%
[1]; 10 μM compound
  rate of NS4B-positive cells: 1.6%

## COC(=O)[C@H](CCSC)NC(=O)[C@H]1O[C@@H](O[C@H]2[C@@H](O[C@H]3CC[C@]4(C)[C@H]5C(=O)C=C6[C@@H]7C[C@@](C)(C(=O)N[C@@H](CCSC)C(=O)OC)CC[C@]7(C)CC[C@@]6(C)[C@]5(C)CC[C@H]4C3(C)C)O[C@H](C(=O)N[C@@H](CCSC)C(=O)OC)[C@@H](O)[C@@H]2O)[C@H](O)[C@@H](O)[C@@H]1O [Compound 6]
[1]; Vero E6 cells
  TI (CC50/IC50): ˃22.2

## CC1(C)[C@@H](O[C@H]2O[C@H](C(=O)O)[C@@H](O)[C@H](O)[C@H]2O[C@@H]2O[C@H](C(=O)O)[C@@H](O)[C@H](O)[C@H]2O)CC[C@]2(C)[C@H]3C(=O)C=C4[C@@H]5C[C@@](C)(C(=O)O)CC[C@]5(C)CC[C@@]4(C)[C@]3(C)CC[C@@H]12 [Compound 1, Glycyrrhizic acid, reference compound]
[1]; Vero E6 cells
  TI (CC50/IC50): ˃12.3
